In patent US5082964A, “Selective acetylcholinesterase inhibitors and methods of making and using same” (priority 1986, dated 1992):
Where a name gives a salt, the structure may show the parent alone. Read-outs that look alike come from different tables or passages of the source.

Assays:
[1] = cited from earlier work
acetylcholinesterase [2] = assay: Ellman assay for acetylcholinesterase inhibition (enzyme source not given); type: biochemical; conditions: enzyme source not stated
Description: (§1) Ortho-, meta-, and p-chloromethylphenyl choline carbonates are all examples of inhibitors of acetylcholinesterase in accordance with the present invention. Employing the Ellman assay for acetylcholinesterase inhibition [G. L. Ellman, K. D. Courtney, V. Andrews, Jr., and R. M. Featherstone, Biochem. Pharmacol., vol.

acetylcholinesterase [3] = assay: Time course inactivation of acetylcholinesterase; type: biochemical
Description: The synthetic preparation of the hydrochloride salt of the tertiary amine inhibitors involves only slight modifications of the general method.

[4] = Solubility, hygroscopicity and stability; type: physicochemical
acetylcholinesterase [5] = target: acetylcholinesterase (Electrophorus electricus, UniProt O42275); assay: Ellman assay for acetylcholinesterase inhibition, IC50 (eel-derived enzyme); type: biochemical, electric eel
Description: as §1
From such competitive inhibitor measurements it was possible to determine an IC50 (proportionate amount necessary to reduce acetylcholinesterase activity by 50%) for various inhibitors [meaning those containing the CH2 X group] in this patent. All IC50 values fell between 8 and 200 uM. The exact value varied with the source of the acetylcholinesterase and quantitative measurements were performed on electric eel and human erythrocyte enzyme. Values reported below are with eel-derived enzyme. [drawing 5] where

acetylcholinesterase [6] = assay: Inhibition and inactivation kinetics of acetylcholinesterase, substrate protection; type: biochemical; conditions: for Protection against inactivation by substrate acetylcholine: equimolar concentrations of acetylcholine and inhibitor (10 μM each), pre-incubation state
Description: as §1
p-Chloromethylphenyl choline carbonate iodide salt is an example of an inhibitor of acetylcholinesterase in accordance with the present invention.

acetylcholinesterase (Electrophorus electricus, UniProt O42275), sequence (O42275 24-633): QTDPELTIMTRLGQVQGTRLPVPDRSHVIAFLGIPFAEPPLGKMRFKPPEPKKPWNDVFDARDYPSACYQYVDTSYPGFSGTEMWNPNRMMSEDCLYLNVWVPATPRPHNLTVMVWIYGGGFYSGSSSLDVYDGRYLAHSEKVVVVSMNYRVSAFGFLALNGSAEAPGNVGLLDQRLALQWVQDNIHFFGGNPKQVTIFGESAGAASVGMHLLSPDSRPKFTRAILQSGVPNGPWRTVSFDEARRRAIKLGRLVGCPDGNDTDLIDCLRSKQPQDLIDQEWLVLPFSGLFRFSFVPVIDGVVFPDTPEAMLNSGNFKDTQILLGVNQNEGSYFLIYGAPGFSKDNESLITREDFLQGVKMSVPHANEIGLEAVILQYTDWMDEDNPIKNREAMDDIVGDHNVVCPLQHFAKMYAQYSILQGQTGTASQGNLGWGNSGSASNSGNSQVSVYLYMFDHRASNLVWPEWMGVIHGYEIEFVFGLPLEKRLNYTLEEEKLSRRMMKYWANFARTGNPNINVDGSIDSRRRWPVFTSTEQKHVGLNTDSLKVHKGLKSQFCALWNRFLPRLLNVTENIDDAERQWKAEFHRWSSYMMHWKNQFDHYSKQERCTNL

Question: Which “Solubility in petroleum ethers and kerosene” value [1] does the source give for `CCOP(=O)(OCC)OP(=O)(OCC)OP(=O)(OCC)OP(=O)(OCC)OCC` (stereo not shown) [hexaethyltetraphosphate] here?
Answer: general insolubility

Question: And the “Solubility in water (known inhibitors)” value [1]?
Answer: somewhat soluble in water

Question: For `CC(C)(C)CCOC(=O)Oc1ccc(CCl)cc1` [3,3-dimethylbutyl p-chloromethylphenyl carbonate], which IC50 (acetylcholinesterase [2]) is on record?
Answer: 8 µM

Question: With `CN(C)CCOC(=O)Oc1ccc(CCl)cc1` as the compound, how does the “Time course inactivation relative to p-chloromethylphenyl choline carbonate” value (acetylcholinesterase [3]; compared with p-chloromethylphenyl choline carbonate) read?
Answer: time course inactivation similar to that for the p-chloromethylphenyl choline carbonate

Question: What about the “Potency relative to the quaternary compound” value (acetylcholinesterase [3]; deduced from time course data) of the same compound?
Answer: as potent as the quaternary compound

Question: What about the Inactivation of acetylcholinesterase (acetylcholinesterase [3]; first 15 minutes at 40 uM concentration) of the same compound?
Answer: 88%

Question: What about the Water solubility [4] of the same compound?
Answer: water- soluble

Question: With `C[N+](C)(C)CCOC(=O)Oc1cccc(CCl)c1` [meta-CH2 Cl] as the compound, how does the IC50 (acetylcholinesterase [5]) read?
Answer: 150 µM

Question: With `C[N+](C)(C)CCOC(=O)Oc1ccccc1CCl` [ortho-CH2 Cl] as the compound, how does the IC50 (acetylcholinesterase [5]) read?
Answer: 100 µM

Question: With `C[N+](C)(C)CCOC(=O)Oc1ccc(CCl)cc1` [p-chloromethyl phenyl choline carbonate iodide salt] as the compound, how does the IC50 (acetylcholinesterase [5]; eel-derived enzyme, Ellman assay, read-out: IC50 (proportionate amount necessary to reduce acetylcholinesterase activity by 50%)) read?
Answer: 40 µM

Question: And the Ki (acetylcholinesterase [6]; 25° C., pH=8 phosphate buffer)?
Answer: 32 µM

Question: What about the Km (acetylcholinesterase [6]; 25° C., pH=8 phosphate buffer) of the same compound?
Answer: 144 µM

Question: What about the “Inactivation mode / kinetics” value (acetylcholinesterase [6]; below inhibitor concentrations of 40 μM) of the same compound?
Answer: time-dependent manner with pseudo first order kinetics

Question: What about the “Protection against inactivation by substrate acetylcholine” value (acetylcholinesterase [6]) of the same compound?
Answer: offers partial protection against inactivation

Question: And the “Protection against inactivation by substrate acetylcholine” value (acetylcholinesterase [6]; listed as p-chloromethyl derivative)?
Answer: offers protection against inactivation

Question: And the Hygroscopicity ([4]; solid iodide salt)?
Answer: very hygroscopic
